Source: the kinase profiling compilation of Christmann-Franck et al. (2016)

Each molecule was assayed against CAMK1 (human) (UniProt Q14012) (assay: radiometric filter-binding kinase assay, Kinase HotSpot). Details: compound 0.5 µM; ATP 10 µM.
Sequence of CAMK1 (human) (Q14012 whole entry, looked up): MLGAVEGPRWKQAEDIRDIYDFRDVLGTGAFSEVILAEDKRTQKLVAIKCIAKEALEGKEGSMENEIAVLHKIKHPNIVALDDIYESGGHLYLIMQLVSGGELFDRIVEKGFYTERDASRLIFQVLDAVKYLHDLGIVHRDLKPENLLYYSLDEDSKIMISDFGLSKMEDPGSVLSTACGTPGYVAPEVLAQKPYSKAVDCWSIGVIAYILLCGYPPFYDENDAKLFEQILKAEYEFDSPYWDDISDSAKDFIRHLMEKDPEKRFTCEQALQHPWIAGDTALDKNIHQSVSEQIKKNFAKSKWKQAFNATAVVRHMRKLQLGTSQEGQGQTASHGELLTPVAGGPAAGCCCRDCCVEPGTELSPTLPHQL
With `O=C1Cc2c([nH]c3ccc([N+](=O)[O-])cc23)-c2ccccc2N1` the residual activity was 94.8%.
With `Oc1ccc(-c2nc(-c3ccc(F)cc3)c(-c3ccncc3)[nH]2)cc1` the residual activity was 108%.
For `Cc1ccc(NC(=O)c2ccc(CN3CCN(C)CC3)cc2)cc1Nc1nc(-c2cccnc2)cs1`, the residual activity was 102%.
Work on `COc1ccc(-c2cnc3c(-c4ccsc4)cnn3c2)cc1` yielded a residual activity of 104%.

Each molecule was assayed against TXK (human) (UniProt P42681) in the same assay as above. Details: compound 0.5 µM; ATP 10 µM.
Sequence of TXK (human) (P42681 whole entry, looked up): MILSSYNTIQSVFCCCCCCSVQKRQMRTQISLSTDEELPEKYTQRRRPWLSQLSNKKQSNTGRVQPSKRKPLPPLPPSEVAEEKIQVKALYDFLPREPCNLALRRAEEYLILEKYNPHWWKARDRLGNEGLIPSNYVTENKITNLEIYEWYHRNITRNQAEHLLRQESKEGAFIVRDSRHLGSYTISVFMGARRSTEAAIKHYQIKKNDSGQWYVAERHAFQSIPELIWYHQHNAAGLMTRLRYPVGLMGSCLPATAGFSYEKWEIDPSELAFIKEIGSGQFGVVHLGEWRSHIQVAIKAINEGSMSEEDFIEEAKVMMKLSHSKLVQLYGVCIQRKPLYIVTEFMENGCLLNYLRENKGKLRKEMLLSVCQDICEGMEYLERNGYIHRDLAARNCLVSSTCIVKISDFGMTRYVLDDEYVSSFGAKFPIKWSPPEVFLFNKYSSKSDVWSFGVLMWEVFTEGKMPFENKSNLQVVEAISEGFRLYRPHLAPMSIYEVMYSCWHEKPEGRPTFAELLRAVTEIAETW
Work on `O=C1Cc2c([nH]c3ccc([N+](=O)[O-])cc23)-c2ccccc2N1` yielded a residual activity of 87.3%.
`Oc1ccc(-c2nc(-c3ccc(F)cc3)c(-c3ccncc3)[nH]2)cc1` showed a residual activity of 78.5%.
`Cc1ccc(NC(=O)c2ccc(CN3CCN(C)CC3)cc2)cc1Nc1nc(-c2cccnc2)cs1` was tested, and the residual activity was 101%.
Molecule `COc1ccc(-c2cnc3c(-c4ccsc4)cnn3c2)cc1` has a residual activity of 85.2%.

What follows are molecules tested against SRMS (human) (UniProt Q9H3Y6) in the same assay as above. Details: compound 0.5 µM; ATP 10 µM.
Sequence of SRMS (human) (Q9H3Y6 whole entry, looked up): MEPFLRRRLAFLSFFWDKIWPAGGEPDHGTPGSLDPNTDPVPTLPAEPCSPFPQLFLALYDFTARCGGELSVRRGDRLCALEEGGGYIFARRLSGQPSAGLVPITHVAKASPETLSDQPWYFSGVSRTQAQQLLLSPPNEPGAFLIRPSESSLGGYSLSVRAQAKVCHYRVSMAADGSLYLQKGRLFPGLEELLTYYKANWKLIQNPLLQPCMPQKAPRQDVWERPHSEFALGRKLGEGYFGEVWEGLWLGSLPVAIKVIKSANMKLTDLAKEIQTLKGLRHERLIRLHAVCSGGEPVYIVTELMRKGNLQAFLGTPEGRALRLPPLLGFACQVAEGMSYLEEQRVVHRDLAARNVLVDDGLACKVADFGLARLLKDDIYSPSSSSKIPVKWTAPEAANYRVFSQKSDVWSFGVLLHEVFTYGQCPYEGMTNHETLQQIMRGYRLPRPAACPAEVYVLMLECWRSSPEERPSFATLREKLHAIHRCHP
Molecule `O=C1Cc2c([nH]c3ccc([N+](=O)[O-])cc23)-c2ccccc2N1` has a residual activity of 92.9%.
`Oc1ccc(-c2nc(-c3ccc(F)cc3)c(-c3ccncc3)[nH]2)cc1` showed a residual activity of 102%.
`Cc1ccc(NC(=O)c2ccc(CN3CCN(C)CC3)cc2)cc1Nc1nc(-c2cccnc2)cs1` showed a residual activity of 92.9%.
`COc1ccc(-c2cnc3c(-c4ccsc4)cnn3c2)cc1` was tested, and the residual activity was 97.4%.

Each molecule was assayed against TGFBR2 (human) (UniProt P37173) in the same assay as above. Details: compound 0.5 µM; ATP 10 µM.
`O=C1Cc2c([nH]c3ccc([N+](=O)[O-])cc23)-c2ccccc2N1` was tested, and the residual activity was 19.4%.
Work on `Oc1ccc(-c2nc(-c3ccc(F)cc3)c(-c3ccncc3)[nH]2)cc1` yielded a residual activity of 127%.
With `Cc1ccc(NC(=O)c2ccc(CN3CCN(C)CC3)cc2)cc1Nc1nc(-c2cccnc2)cs1` the residual activity was 101%.
In the case of `COc1ccc(-c2cnc3c(-c4ccsc4)cnn3c2)cc1`, the residual activity is reported as 84.1%.

The molecules below were run against HIPK2 (human) (UniProt Q9H2X6) in the same assay as above. Details: compound 0.5 µM; ATP 10 µM.
Sequence of HIPK2 (human) (Q9H2X6 whole entry, looked up): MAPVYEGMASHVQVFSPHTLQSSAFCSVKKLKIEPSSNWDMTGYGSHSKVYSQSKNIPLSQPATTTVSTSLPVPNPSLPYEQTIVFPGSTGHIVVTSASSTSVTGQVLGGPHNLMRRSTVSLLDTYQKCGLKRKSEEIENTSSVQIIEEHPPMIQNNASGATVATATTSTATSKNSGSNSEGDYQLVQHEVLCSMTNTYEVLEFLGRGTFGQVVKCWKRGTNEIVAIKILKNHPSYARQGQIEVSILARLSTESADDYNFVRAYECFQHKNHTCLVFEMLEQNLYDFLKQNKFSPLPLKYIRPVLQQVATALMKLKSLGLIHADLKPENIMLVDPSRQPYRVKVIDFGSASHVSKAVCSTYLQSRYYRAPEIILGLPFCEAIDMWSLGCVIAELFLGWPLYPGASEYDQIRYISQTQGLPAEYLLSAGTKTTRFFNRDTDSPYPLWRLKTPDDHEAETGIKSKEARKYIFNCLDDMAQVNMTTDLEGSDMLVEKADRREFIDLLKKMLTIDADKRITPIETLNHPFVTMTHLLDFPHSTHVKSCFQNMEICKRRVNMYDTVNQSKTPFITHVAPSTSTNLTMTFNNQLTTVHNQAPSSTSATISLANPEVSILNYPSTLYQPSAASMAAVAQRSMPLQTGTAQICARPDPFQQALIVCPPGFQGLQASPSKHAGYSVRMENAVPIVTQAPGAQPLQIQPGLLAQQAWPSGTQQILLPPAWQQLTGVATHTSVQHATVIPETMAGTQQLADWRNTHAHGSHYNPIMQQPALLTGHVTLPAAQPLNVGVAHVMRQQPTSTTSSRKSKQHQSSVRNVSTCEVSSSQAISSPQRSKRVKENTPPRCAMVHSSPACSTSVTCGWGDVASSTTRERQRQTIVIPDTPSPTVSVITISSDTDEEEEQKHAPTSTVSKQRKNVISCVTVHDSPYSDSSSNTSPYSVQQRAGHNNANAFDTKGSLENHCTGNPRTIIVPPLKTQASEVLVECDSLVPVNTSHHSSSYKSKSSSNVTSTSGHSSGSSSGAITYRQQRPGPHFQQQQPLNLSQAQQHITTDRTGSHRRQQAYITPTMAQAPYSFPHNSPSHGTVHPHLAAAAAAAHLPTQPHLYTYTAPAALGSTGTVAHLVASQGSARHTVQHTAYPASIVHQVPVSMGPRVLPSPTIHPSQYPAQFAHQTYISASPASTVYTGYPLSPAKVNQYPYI
For `O=C1Cc2c([nH]c3ccc([N+](=O)[O-])cc23)-c2ccccc2N1`, the residual activity was 110%.
`Oc1ccc(-c2nc(-c3ccc(F)cc3)c(-c3ccncc3)[nH]2)cc1` was tested, and the residual activity was 102%.
With `Cc1ccc(NC(=O)c2ccc(CN3CCN(C)CC3)cc2)cc1Nc1nc(-c2cccnc2)cs1` the residual activity was 90.8%.
`COc1ccc(-c2cnc3c(-c4ccsc4)cnn3c2)cc1` gave a residual activity of 91.2%.

What follows are molecules tested against ERBB2 (human) (UniProt P04626) in the same assay as above. Details: compound 0.5 µM; ATP 10 µM.
Sequence of ERBB2 (human) (P04626 whole entry, looked up): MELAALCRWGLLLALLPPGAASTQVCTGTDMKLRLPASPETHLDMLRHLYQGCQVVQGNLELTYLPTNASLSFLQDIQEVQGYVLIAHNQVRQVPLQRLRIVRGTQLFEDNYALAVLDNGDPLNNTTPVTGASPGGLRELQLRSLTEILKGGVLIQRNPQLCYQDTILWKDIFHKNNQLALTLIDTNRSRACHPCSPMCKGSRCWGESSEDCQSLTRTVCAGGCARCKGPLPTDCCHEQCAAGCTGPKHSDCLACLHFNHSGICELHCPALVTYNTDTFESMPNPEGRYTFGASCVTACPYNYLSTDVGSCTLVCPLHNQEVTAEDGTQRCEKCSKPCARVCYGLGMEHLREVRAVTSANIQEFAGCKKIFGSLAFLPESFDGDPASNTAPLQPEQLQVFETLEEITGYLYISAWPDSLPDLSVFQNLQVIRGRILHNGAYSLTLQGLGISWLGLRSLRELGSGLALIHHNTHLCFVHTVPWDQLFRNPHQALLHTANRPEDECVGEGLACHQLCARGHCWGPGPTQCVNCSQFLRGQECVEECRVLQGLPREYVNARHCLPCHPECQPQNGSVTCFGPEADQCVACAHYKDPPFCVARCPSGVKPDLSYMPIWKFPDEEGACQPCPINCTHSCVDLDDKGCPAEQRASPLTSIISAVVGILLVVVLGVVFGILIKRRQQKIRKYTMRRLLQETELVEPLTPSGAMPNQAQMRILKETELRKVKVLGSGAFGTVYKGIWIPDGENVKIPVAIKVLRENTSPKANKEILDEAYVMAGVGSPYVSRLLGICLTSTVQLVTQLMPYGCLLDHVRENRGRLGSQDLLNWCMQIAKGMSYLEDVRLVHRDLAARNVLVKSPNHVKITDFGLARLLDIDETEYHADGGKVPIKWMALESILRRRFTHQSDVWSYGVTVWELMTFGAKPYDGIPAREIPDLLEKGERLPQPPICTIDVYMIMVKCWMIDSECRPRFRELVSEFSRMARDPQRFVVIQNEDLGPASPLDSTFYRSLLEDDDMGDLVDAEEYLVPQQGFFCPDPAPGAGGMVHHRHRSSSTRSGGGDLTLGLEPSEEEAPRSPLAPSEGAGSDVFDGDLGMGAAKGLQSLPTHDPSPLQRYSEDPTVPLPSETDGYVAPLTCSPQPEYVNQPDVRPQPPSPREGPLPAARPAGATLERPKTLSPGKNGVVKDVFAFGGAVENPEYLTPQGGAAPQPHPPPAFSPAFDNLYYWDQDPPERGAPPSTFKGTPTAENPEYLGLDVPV
With `O=C1Cc2c([nH]c3ccc([N+](=O)[O-])cc23)-c2ccccc2N1` the residual activity was 94.8%.
`Oc1ccc(-c2nc(-c3ccc(F)cc3)c(-c3ccncc3)[nH]2)cc1` showed a residual activity of 95.5%.
Work on `Cc1ccc(NC(=O)c2ccc(CN3CCN(C)CC3)cc2)cc1Nc1nc(-c2cccnc2)cs1` yielded a residual activity of 103%.
`COc1ccc(-c2cnc3c(-c4ccsc4)cnn3c2)cc1` was tested, and the residual activity was 102%.

These molecules were tested against SGK3 (human) (UniProt Q96BR1) in the same assay as above. Details: compound 0.5 µM; ATP 10 µM.
Sequence of SGK3 (human) (Q96BR1 whole entry, looked up): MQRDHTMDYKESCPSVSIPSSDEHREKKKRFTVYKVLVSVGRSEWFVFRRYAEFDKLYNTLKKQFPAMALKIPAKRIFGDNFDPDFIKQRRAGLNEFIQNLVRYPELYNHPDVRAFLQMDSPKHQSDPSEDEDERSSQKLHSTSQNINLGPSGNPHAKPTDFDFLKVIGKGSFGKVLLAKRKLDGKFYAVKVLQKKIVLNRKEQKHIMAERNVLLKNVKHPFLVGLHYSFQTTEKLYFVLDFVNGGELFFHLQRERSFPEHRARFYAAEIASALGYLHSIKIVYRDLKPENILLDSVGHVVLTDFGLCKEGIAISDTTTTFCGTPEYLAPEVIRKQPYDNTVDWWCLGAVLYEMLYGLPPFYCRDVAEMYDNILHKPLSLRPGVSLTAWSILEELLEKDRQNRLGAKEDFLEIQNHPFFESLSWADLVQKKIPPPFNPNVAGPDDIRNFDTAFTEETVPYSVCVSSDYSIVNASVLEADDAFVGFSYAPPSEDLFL
For `O=C1Cc2c([nH]c3ccc([N+](=O)[O-])cc23)-c2ccccc2N1`, the residual activity was 102%.
`Oc1ccc(-c2nc(-c3ccc(F)cc3)c(-c3ccncc3)[nH]2)cc1` showed a residual activity of 98.4%.
Molecule `Cc1ccc(NC(=O)c2ccc(CN3CCN(C)CC3)cc2)cc1Nc1nc(-c2cccnc2)cs1` has a residual activity of 95.6%.
`COc1ccc(-c2cnc3c(-c4ccsc4)cnn3c2)cc1` gave a residual activity of 99.6%.

What follows are molecules tested against MERTK (human) (UniProt Q12866) in the same assay as above. Details: compound 0.5 µM; ATP 10 µM.
Work on `O=C1Cc2c([nH]c3ccc([N+](=O)[O-])cc23)-c2ccccc2N1` yielded a residual activity of 83.1%.
For `Oc1ccc(-c2nc(-c3ccc(F)cc3)c(-c3ccncc3)[nH]2)cc1`, the residual activity was 85.2%.
`Cc1ccc(NC(=O)c2ccc(CN3CCN(C)CC3)cc2)cc1Nc1nc(-c2cccnc2)cs1` was tested, and the residual activity was 109%.
Molecule `COc1ccc(-c2cnc3c(-c4ccsc4)cnn3c2)cc1` has a residual activity of 81.2%.

These molecules were tested against MAP2K1 (human) (UniProt Q02750) in the same assay as above. Details: compound 0.5 µM; ATP 10 µM.
Sequence of MAP2K1 (human) (Q02750 whole entry, looked up): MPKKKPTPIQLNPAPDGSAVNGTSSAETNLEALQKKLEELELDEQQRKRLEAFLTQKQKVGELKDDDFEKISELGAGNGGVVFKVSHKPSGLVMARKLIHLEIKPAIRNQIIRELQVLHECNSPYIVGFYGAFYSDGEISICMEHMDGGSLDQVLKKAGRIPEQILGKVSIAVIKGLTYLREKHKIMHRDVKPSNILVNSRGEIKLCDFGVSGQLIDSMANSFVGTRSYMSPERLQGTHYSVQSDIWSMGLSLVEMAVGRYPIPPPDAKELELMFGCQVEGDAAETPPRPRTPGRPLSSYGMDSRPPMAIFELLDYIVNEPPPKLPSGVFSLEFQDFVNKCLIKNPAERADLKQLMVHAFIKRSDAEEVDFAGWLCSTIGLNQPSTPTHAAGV
`O=C1Cc2c([nH]c3ccc([N+](=O)[O-])cc23)-c2ccccc2N1` showed a residual activity of 92.6%.
Work on `Oc1ccc(-c2nc(-c3ccc(F)cc3)c(-c3ccncc3)[nH]2)cc1` yielded a residual activity of 93%.
`Cc1ccc(NC(=O)c2ccc(CN3CCN(C)CC3)cc2)cc1Nc1nc(-c2cccnc2)cs1` showed a residual activity of 111%.
For `COc1ccc(-c2cnc3c(-c4ccsc4)cnn3c2)cc1`, the residual activity was 98.2%.

These molecules were tested against NEK9 (human) (UniProt Q8TD19) in the same assay as above. Details: compound 0.5 µM; ATP 10 µM.
`O=C1Cc2c([nH]c3ccc([N+](=O)[O-])cc23)-c2ccccc2N1` showed a residual activity of 99.3%.
`Oc1ccc(-c2nc(-c3ccc(F)cc3)c(-c3ccncc3)[nH]2)cc1` showed a residual activity of 99.4%.
Molecule `Cc1ccc(NC(=O)c2ccc(CN3CCN(C)CC3)cc2)cc1Nc1nc(-c2cccnc2)cs1` has a residual activity of 98.6%.
Molecule `COc1ccc(-c2cnc3c(-c4ccsc4)cnn3c2)cc1` has a residual activity of 90.3%.

Each molecule was assayed against CSNK1A1 (human) (UniProt P48729) in the same assay as above. Details: compound 0.5 µM; ATP 10 µM.
With `O=C1Cc2c([nH]c3ccc([N+](=O)[O-])cc23)-c2ccccc2N1` the residual activity was 103%.
Work on `Oc1ccc(-c2nc(-c3ccc(F)cc3)c(-c3ccncc3)[nH]2)cc1` yielded a residual activity of 62.3%.
